Source: PubChem BioAssay AID2060900 (Molecular Pharmacology Branch, DTP, NCI, 2025)
Each block holds one molecule with its values, some of them ahead of it.

System: 521955-158-R2-J5-PDC complex spheroids, viability
Experiment: Anticancer human tumor 521955-158-R2-J5-PDC patient-derived pancreatic carcinoma cell line growth inhibition [RAS]
Conditions: for IC50: curve of first compound; for viability, T/C: stronger effect = lower value
In short: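 Multi-cell-type spheroids: tumor cells plus HUVEC endothelial cells and mesenchymal stem cells. RAS-pathway inhibitors were combined with targeted agents, each dosed in half-log steps down from clinical Cmax, or from 10 microM when Cmax was unknown.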

[1] = second compound 0.000949 µM, first compound 0.0316 µM
[2] = second compound 0.000949 µM, first compound 0.1 µM
[3] = second compound 0.000949 µM, first compound 0.316 µM
[4] = second compound 0.000949 µM, first compound 1 µM
[5] = second compound 0.003 µM, first compound 0.0316 µM
[6] = second compound 0.003 µM, first compound 0.1 µM
[7] = second compound 0.003 µM, first compound 0.316 µM
[8] = second compound 0.003 µM, first compound 1 µM
[9] = second compound 0.00949 µM, first compound 0.0316 µM
[10] = second compound 0.00949 µM, first compound 0.1 µM
[11] = second compound 0.00949 µM, first compound 0.316 µM
[12] = second compound 0.00949 µM, first compound 1 µM
[13] = second compound 0.03 µM, first compound 0.0316 µM
[14] = second compound 0.03 µM, first compound 0.1 µM
[15] = second compound 0.03 µM, first compound 0.316 µM
[16] = second compound 0.03 µM, first compound 1 µM
[17] = second compound 0.0949 µM, first compound 0.0316 µM
[18] = second compound 0.0949 µM, first compound 0.1 µM
[19] = second compound 0.0949 µM, first compound 0.316 µM
[20] = second compound 0.0949 µM, first compound 1 µM
[21] = second compound 0.3 µM, first compound 0.0316 µM
[22] = second compound 0.3 µM, first compound 0.1 µM
[23] = second compound 0.3 µM, first compound 0.316 µM
[24] = second compound 0.3 µM, first compound 1 µM
[25] = second compound 0.000949 µM, first compound 3.16 µM
[26] = second compound 0.000949 µM, first compound 10 µM
[27] = second compound 0.003 µM, first compound 3.16 µM
[28] = second compound 0.003 µM, first compound 10 µM
[29] = second compound 0.00949 µM, first compound 3.16 µM
[30] = second compound 0.00949 µM, first compound 10 µM
[31] = second compound 0.03 µM, first compound 3.16 µM
[32] = second compound 0.03 µM, first compound 10 µM
[33] = second compound 0.0949 µM, first compound 3.16 µM
[34] = second compound 0.0949 µM, first compound 10 µM
[35] = second compound 0.3 µM, first compound 3.16 µM
[36] = second compound 0.3 µM, first compound 10 µM
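Further: compound exposure lasted seven days before the viability read.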
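Wherever viability, T/C is given: spheroids also contain HUVEC endothelial cells and mesenchymal stem cells as stroma.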

IC50 (second compound 0.000949 µM): < 3.16 nM | IC50 (second compound 0.003 µM): < 3.16 nM | IC50 (second compound 0.00949 µM): < 3.16 nM | IC50 (second compound 0.03 µM): < 3.16 nM | IC50 (second compound 0.0949 µM): < 3.16 nM | IC50 (second compound 0.3 µM): < 3.16 nM
SMILES: CCN1CCN(Cc2ccc(Nc3ncc(F)c(-c4cc(F)c5nc(C)n(C(C)C)c5c4)n3)nc2)CC1 + CCn1c(-c2cc(N3CCN(C)CC3)cnc2C(C)OC)c2c3cc(ccc31)-c1csc(n1)CC(NC(=O)C1CC1C)C(=O)N1CCCC(N1)C(=O)OCC(C)(C)C2
viability, T/C (second compound 0.000949 µM, first compound 0.00316 µM): 43.2% | viability, T/C (second compound 0.000949 µM, first compound 0.01 µM): 39.4% | viability, T/C [1]: 39.4% | viability, T/C [2]: 31.6% | viability, T/C [3]: 43.6% | viability, T/C [4]: 47.6% | viability, T/C (second compound 0.003 µM, first compound 0.00316 µM): 39.4% | viability, T/C (second compound 0.003 µM, first compound 0.01 µM): 40.9% | viability, T/C [5]: 41.2% | viability, T/C [6]: 39.2% | viability, T/C [7]: 37.9% | viability, T/C [8]: 36.6% | viability, T/C (second compound 0.00949 µM, first compound 0.00316 µM): 35.8% | viability, T/C (second compound 0.00949 µM, first compound 0.01 µM): 30.1% | viability, T/C [9]: 28.4% | viability, T/C [10]: 22.8% | viability, T/C [11]: 27.5% | viability, T/C [12]: 25.9% | viability, T/C (second compound 0.03 µM, first compound 0.00316 µM): 23% | viability, T/C (second compound 0.03 µM, first compound 0.01 µM): 18.4% | viability, T/C [13]: 17% | viability, T/C [14]: 16.8% | viability, T/C [15]: 16.4% | viability, T/C [16]: 16.5% | viability, T/C (second compound 0.0949 µM, first compound 0.00316 µM): 12.1% | viability, T/C (second compound 0.0949 µM, first compound 0.01 µM): 11% | viability, T/C [17]: 11.4% | viability, T/C [18]: 8.7% | viability, T/C [19]: 13.6% | viability, T/C [20]: 14.8% | viability, T/C (second compound 0.3 µM, first compound 0.00316 µM): 9.79% | viability, T/C (second compound 0.3 µM, first compound 0.01 µM): 8.72% | viability, T/C [21]: 10.5% | viability, T/C [22]: 10% | viability, T/C [23]: 13.9% | viability, T/C [24]: 13.1%

IC50 (second compound 0.000949 µM): < 31.6 nM | IC50 (second compound 0.003 µM): < 31.6 nM | IC50 (second compound 0.00949 µM): < 31.6 nM | IC50 (second compound 0.03 µM): < 31.6 nM | IC50 (second compound 0.0949 µM): < 31.6 nM | IC50 (second compound 0.3 µM): < 31.6 nM
SMILES: Cc1nc(N2CCC3(CC2)COC(C)C3N)c(CO)nc1Sc1ccnc(N)c1Cl (stereo unspecified) + CCn1c(-c2cc(N3CCN(C)CC3)cnc2C(C)OC)c2c3cc(ccc31)-c1csc(n1)CC(NC(=O)C1CC1C)C(=O)N1CCCC(N1)C(=O)OCC(C)(C)C2
viability, T/C [1]: 39.5% | viability, T/C [2]: 31% | viability, T/C [3]: 32.7% | viability, T/C [4]: 39.2% | viability, T/C [25]: 36.4% | viability, T/C [26]: 33.3% | viability, T/C [5]: 36.2% | viability, T/C [6]: 40.7% | viability, T/C [7]: 35.3% | viability, T/C [8]: 31.3% | viability, T/C [27]: 23.8% | viability, T/C [28]: 20.9% | viability, T/C [9]: 27.4% | viability, T/C [10]: 32.1% | viability, T/C [11]: 25% | viability, T/C [12]: 18.3% | viability, T/C [29]: 18.7% | viability, T/C [30]: 10.8% | viability, T/C [13]: 15.9% | viability, T/C [14]: 18.1% | viability, T/C [15]: 12.8% | viability, T/C [16]: 13.9% | viability, T/C [31]: 11.8% | viability, T/C [32]: 11.7% | viability, T/C [17]: 14.3% | viability, T/C [18]: 11% | viability, T/C [19]: 15.1% | viability, T/C [20]: 7.6% | viability, T/C [33]: 11.3% | viability, T/C [34]: 10.7% | viability, T/C [21]: 9.07% | viability, T/C [22]: 8.16% | viability, T/C [23]: 8.08% | viability, T/C [24]: 6.34% | viability, T/C [35]: 7.5% | viability, T/C [36]: 9.18%

IC50 (second compound 0.000949 µM): < 31.6 nM | IC50 (second compound 0.003 µM): < 31.6 nM | IC50 (second compound 0.00949 µM): < 31.6 nM | IC50 (second compound 0.03 µM): < 31.6 nM | IC50 (second compound 0.0949 µM): < 31.6 nM | IC50 (second compound 0.3 µM): < 31.6 nM
SMILES: NC1c2ccccc2OC12CCN(c1cnc3c(N4CCCc5ncccc54)n[nH]c3n1)CC2 (stereo unspecified) + CCn1c(-c2cc(N3CCN(C)CC3)cnc2C(C)OC)c2c3cc(ccc31)-c1csc(n1)CC(NC(=O)C1CC1C)C(=O)N1CCCC(N1)C(=O)OCC(C)(C)C2
viability, T/C [1]: 36.8% | viability, T/C [2]: 33.9% | viability, T/C [3]: 36.1% | viability, T/C [4]: 20.8% | viability, T/C [25]: 18.5% | viability, T/C [26]: 13.4% | viability, T/C [5]: 35.4% | viability, T/C [6]: 28.6% | viability, T/C [7]: 21.4% | viability, T/C [8]: 19.2% | viability, T/C [27]: 13.3% | viability, T/C [28]: 5.75% | viability, T/C [9]: 24.2% | viability, T/C [10]: 16% | viability, T/C [11]: 14.4% | viability, T/C [12]: 11.2% | viability, T/C [29]: 6.08% | viability, T/C [30]: 3.95% | viability, T/C [13]: 10.4% | viability, T/C [14]: 8.87% | viability, T/C [15]: 10.9% | viability, T/C [16]: 8.91% | viability, T/C [31]: 7.26% | viability, T/C [32]: 4.07% | viability, T/C [17]: 11% | viability, T/C [18]: 9.54% | viability, T/C [19]: 11.1% | viability, T/C [20]: 5.55% | viability, T/C [33]: 8% | viability, T/C [34]: 3.91% | viability, T/C [21]: 10.1% | viability, T/C [22]: 7.36% | viability, T/C [23]: 9.18% | viability, T/C [24]: 8.17% | viability, T/C [35]: 9.16% | viability, T/C [36]: 3.2%
